Laboratory results as given in patent US5464861A, “2-thioindoles (selenoindoles) and related disulfides (selenides) which inhibit protein tyrosine kinases and which have antitumor properties” (Warner-Lambert, priority 1993, dated 1995).
Read-outs that look alike come from different tables or passages of the source.

Experiments:
[1] = molecular target: T1, human PDGF β receptor intracellular tyrosine kinase domain (Homo sapiens, UniProt P09619); test: PDGF receptor tyrosine kinase inhibition assay (P^32 incorporation in Glu-Tyr); assay type: biochemical; settings: for inhibition at 100 µM: read-out: % Inhibition at 100 μM (PDGFR TK); for IC50: Table 2, PDGF-R, IC50 entries, read-out: IC50 (PDGFR TK)
T1 construct: human PDGF β receptor intracellular tyrosine kinase domain; made in house; host or cells: SF9 insect cells, recombinant baculovirus; cell lysates used
Protocol: Recombinant baculovirus containing human PDGF β receptor intracellular tyrosine kinase domain was used to infect SF9 cells to overexpress the protein, and cell lysates were used for the assay. The ability of the tyrosine kinase to phosphorylate glutamate tyrosine substrate in the presence of P^32 -ATP and inhibitor was measured by counting the incorporation of P^32 in Glu-Tyr in TCAprecipitable material.

[2] = molecular target: T2, epidermal growth factor receptor tyrosine kinase (Homo sapiens, UniProt P00533); test: EGF receptor tyrosine kinase assay (P^32 incorporation in GAT); assay type: biochemical; settings: for inhibition at 100 µM: EGRF-R, read-out: % Inhibition at 100 μM (EGFR TK)
T2 construct: A native 170,000 epidermal growth factor receptor-kinase complex from shed plasma membrane vesicles; endogenous in cells
Protocol: At the time of assay, membranes were solubilized in 4% Triton X-100 and glycerol. The reaction is carried out in wells of a 96-well microtiter plate in a total volume of […]. Buffer containing 20 mMHepes (pH 7.4), 15 mMMgCl2, mM MnCl2, and 0.02% BSA followed by […] of membrane protein and 150 ng of epidermal growth factor. The plates are incubated for 10 minutes at room temperature to activate the receptor kinase. […] ATP plus or minus compound are added and incubated 10 minutes at room temperature.

[3] = Table 2, EGRF-R, IC50 entries, read-out: IC50 (EGFR TK)

T1 sequence (P09619 554-1106 limits assumed): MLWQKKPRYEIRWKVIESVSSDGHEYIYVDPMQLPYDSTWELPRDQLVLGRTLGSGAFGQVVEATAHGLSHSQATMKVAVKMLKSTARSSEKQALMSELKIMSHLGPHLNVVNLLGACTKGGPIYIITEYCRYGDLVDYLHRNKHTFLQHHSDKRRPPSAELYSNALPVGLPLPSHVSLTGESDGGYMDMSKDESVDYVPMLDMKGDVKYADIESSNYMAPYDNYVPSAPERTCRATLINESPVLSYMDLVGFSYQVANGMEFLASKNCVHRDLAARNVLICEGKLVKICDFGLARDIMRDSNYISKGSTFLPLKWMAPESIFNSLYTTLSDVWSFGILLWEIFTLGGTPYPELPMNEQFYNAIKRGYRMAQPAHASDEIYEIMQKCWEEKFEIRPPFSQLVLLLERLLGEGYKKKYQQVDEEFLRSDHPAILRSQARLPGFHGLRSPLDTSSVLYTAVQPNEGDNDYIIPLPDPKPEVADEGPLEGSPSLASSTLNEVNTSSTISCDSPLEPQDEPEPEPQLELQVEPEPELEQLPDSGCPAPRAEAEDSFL
T2 sequence (P00533 25-1210): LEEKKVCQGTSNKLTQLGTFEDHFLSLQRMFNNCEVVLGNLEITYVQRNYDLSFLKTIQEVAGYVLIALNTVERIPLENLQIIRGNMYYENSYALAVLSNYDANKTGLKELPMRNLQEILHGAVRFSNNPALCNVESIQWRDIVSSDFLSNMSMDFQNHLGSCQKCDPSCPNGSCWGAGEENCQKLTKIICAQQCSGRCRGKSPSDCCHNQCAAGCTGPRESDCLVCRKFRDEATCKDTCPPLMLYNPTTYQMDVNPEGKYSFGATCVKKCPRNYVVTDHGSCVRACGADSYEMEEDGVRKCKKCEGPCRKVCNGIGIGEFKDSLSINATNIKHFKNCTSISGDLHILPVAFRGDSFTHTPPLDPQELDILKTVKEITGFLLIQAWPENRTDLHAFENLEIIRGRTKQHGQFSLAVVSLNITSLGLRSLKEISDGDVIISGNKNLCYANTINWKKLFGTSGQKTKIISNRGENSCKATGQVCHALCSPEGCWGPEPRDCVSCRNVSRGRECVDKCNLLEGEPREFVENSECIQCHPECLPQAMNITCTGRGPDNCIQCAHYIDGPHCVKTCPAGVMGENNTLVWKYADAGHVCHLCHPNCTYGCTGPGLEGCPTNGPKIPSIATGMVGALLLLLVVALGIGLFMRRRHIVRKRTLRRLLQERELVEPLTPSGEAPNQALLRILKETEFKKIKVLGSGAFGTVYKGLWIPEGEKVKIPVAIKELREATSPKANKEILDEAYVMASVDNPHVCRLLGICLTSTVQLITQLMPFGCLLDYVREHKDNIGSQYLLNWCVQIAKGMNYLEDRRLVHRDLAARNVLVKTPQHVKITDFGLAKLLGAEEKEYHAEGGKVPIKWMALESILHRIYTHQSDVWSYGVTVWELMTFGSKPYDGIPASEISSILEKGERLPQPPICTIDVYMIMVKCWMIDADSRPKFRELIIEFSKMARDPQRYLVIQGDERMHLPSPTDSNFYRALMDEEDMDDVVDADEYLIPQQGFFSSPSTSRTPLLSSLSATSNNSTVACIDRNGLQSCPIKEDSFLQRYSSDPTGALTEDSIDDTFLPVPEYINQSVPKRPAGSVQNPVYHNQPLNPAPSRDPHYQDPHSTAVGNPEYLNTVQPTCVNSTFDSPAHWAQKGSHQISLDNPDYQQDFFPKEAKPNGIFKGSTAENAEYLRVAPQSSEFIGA
T2 sequence (P01133 971-1023 partner limits assumed): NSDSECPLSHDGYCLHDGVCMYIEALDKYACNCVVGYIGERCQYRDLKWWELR

**Q.** With `Cc1cccc2c(C(=O)Nc3ccccc3)c(SSc3c(C(=O)Nc4ccccc4)c4cccc(C)c4n3C)n(C)c12` [Compound 78, bis [N-phenyl 1,7-dimethyl indolyl-3-carboxamide-(2)]disulfide] as the compound, how does the inhibition at 100 µM ([1]; at 100 μM, PDGF-R) read?
**A.** 7%

**Q.** What about the inhibition at 100 µM [2] of the same compound?
**A.** 27%

**Q.** How did the inhibition at 100 µM ([1]; at 100 μM, PDGF-R) turn out when `COc1ccc2c(c1)c(C(=O)Nc1ccccc1)c(SSc1c(C(=O)Nc3ccccc3)c3cc(OC)ccc3n1C)n2C` [Compound 80, bis[N-phenyl 5-methoxy-1-methylindolyl-3-carboxamide-(2)]disulfide] was run?
**A.** 16%

**Q.** And the inhibition at 100 µM [2]?
**A.** 0%

**Q.** What does the source list for `Cn1c(SSc2c(C(=O)Nc3ccccc3)c3cc(C(F)(F)F)ccc3n2C)c(C(=O)Nc2ccccc2)c2cc(C(F)(F)F)ccc21` [Compound 84, 2,2-dithiobis [N-phenyl-1-methyl-5-(trifluoro-methyl)indolyl-3-carboxamide]]?
**A.** inhibition at 100 µM ([1]; at 100 μM, PDGF-R): 22%; inhibition at 100 µM [2]: 35%

**Q.** For `Cn1c(SSc2c(C(=O)Nc3ccccc3)c3ccc(Cl)cc3n2C)c(C(=O)Nc2ccccc2)c2ccc(Cl)cc21` [Compound 85, bis[N-phenyl 6-chloro-1-methylindolyl-3-carboxamide-(2)]disulfide], which inhibition at 100 µM ([1]; at 100 μM, PDGF-R) is on record?
**A.** 7%

**Q.** And the inhibition at 100 µM [2]?
**A.** 8%

**Q.** `Cn1c(SSc2c(C(=O)Nc3ccccc3)c3cc([N+](=O)[O-])ccc3n2C)c(C(=O)Nc2ccccc2)c2cc([N+](=O)[O-])ccc21` [Compound 86, 2,2'-dithiobis [N-phenyl-1-methyl-5-nitroindolyl-3-carboxamide]] was tested. Which inhibition at 100 µM [1] did it give?
**A.** 5%

**Q.** And the IC50 [2]?
**A.** 4.9 µM

**Q.** What does the source list for `Cn1c(SSc2c(C(=O)Nc3ccccc3)c3cc(F)ccc3n2C)c(C(=O)Nc2ccccc2)c2cc(F)ccc21` [Compound 87, 2,2'-dithiobis [N-phenyl-5-fluoro-1-methylindolyl-3-carboxamide]]?
**A.** inhibition at 100 µM ([1]; at 100 μM, PDGF-R): 44%; inhibition at 100 µM [2]: 34%

**Q.** How did the inhibition at 100 µM ([1]; at 100 μM, PDGF-R) turn out when `Cn1c(SSc2c(C(=O)Nc3ccccc3)c3cc(C#N)ccc3n2C)c(C(=O)Nc2ccccc2)c2cc(C#N)ccc21` [Compound 88, 2,2'-dithiobis[N-phenyl-5-cyano-1-methylindolyl-3-carboxamide]] was run?
**A.** 51%

**Q.** And the IC50 [2, 3]?
**A.** 54 µM

**Q.** Which results are given for `Cn1c(SSc2c(C(=O)Nc3ccccc3)c3cc(Br)ccc3n2C)c(C(=O)Nc2ccccc2)c2cc(Br)ccc21` [Compound 89, 2,2'-dithiobis[N-phenyl-5-bromo-1-methylindolyl-3-carboxamide]]?
**A.** inhibition at 100 µM ([1]; at 100 μM, PDGF-R): 3%; IC50 [2, 3]: 11.4 µM

**Q.** What does the source list for `CC(=O)Oc1cccc2c1c(C(=O)Nc1ccccc1)c(SSc1c(C(=O)Nc3ccccc3)c3c(OC(C)=O)cccc3n1C)n2C` [Compound 90, 2,2'-dithiobis [N-phenyl 4-acetoxy-1-methylindolyl-3-carboxamide]]?
**A.** IC50 [1]: 36.5 µM; IC50 [2, 3]: 26 µM

**Q.** What does the source list for `Cn1c(SSc2c(C(=O)Nc3ccc(C(=O)O)cc3)c3ccccc3n2C)c(C(=O)Nc2ccc(C(=O)O)cc2)c2ccccc21` [Compound 105, 2,2'-dithiobis [N-(4'-carboxy)phenyl-1-methylindolyl-3-carboxamide]]?
**A.** inhibition at 100 µM ([1]; at 100 μM, PDGF-R): 33%; IC50 [2, 3]: 16.9 µM

**Q.** `Cn1c(SSc2c(C(=O)Nc3ccccc3C(=O)O)c3ccccc3n2C)c(C(=O)Nc2ccccc2C(=O)O)c2ccccc21` [Compound 109, 2,2'-dithiobis[N-(2'-carboxy)phenyl-1-methylindolyl-3-carboxamide]] was tested. Which inhibition at 100 µM ([1]; at 100 μM, PDGF-R) did it give?
**A.** 8%

**Q.** And the IC50 [2, 3]?
**A.** 47 µM

**Q.** What does the source list for `Cn1c(SSc2c(C(=O)NCC(=O)O)c3ccccc3n2C)c(C(=O)NCC(=O)O)c2ccccc21` [Compound 112, 2,2'-dithiobis[N-carboxymethyl1-methylindolyl-3-carboxamide]]?
**A.** inhibition at 100 µM ([1]; at 100 μM, PDGF-R): 69%; IC50 [2, 3]: 10 µM

**Q.** Which results are given for `CN(C(=O)c1c(SSc2c(C(=O)N(C)c3ccccc3)c3ccccc3n2C)n(C)c2ccccc12)c1ccccc1` [Compound 113, 2,2 '-dithiobis [N-methyl-N-phenyl-1-methylindolyl-3-carboxamide]]?
**A.** inhibition at 100 µM ([1]; at 100 μM, PDGF-R): 29%; inhibition at 100 µM [2]: 5%

**Q.** `Cn1c(SSc2c(C(=O)NCC(O)CO)c3ccccc3n2C)c(C(=O)NCC(O)CO)c2ccccc21` (stereo not shown) [Compound 114, 2,2'-dithiobis [N-(2,3-dihydroxypropyl)-1-methylindolyl-3-carboxamide]] was tested. Which IC50 [1] did it give?
**A.** 7 µM

**Q.** What about the IC50 [2, 3] of the same compound?
**A.** 42.9 µM
